This passage reports Activity and ED50 results from ChEMBL document CHEMBL3880391, “Tetrahydroquinoline derivatives as glycine antagonists” (2002).

Series [1] in a line: Toxicity in orally dosed mouse assessed as induction of untoward effects. The format is organism-based. As to conditions: in vivo, po.
Another series deals with Mus musculus. Put plainly: Analgesic activity in mouse assessed as inhibition of formalin-induced pain by measuring time spent licking injected paw for first 5 minutes (early phase) and from 20 to 60 mins (late phase) administered orally 1 hr before formalin injection by formalin test. The format is functional.

The ED50 is the dose at which the effect has come halfway, by size or by number of responders.

With `O=C([O-])C1C/C(=C2/CCN(c3ccccc3)C2=O)c2c(Cl)cc(Cl)cc2N1.[Na+]` (centres undefined), the Activity result in series [1] is recorded as “Non-Toxic”.

`O=C([O-])C1C/C(=C2/NC(=O)N(c3ccccc3)C2=O)c2ccc(Cl)cc2N1.[Na+]` (racemic): the Activity result in series [1] was “Non-Toxic”.

With `O=C([O-])C1C/C(=C2\CCN(c3cccnc3)C2=O)c2ccc(Cl)cc2N1.[Na+]` (racemic), the Activity result in series [1] is on record as “Non-Toxic”.

For the molecule `O=C([O-])C1CC(C2=CCCN(c3ccccc3)C2=O)c2ccc(Cl)cc2N1.[Na+]` (racemic), in series [1], the Activity result was “Non-Toxic”.

For `O=C([O-])C1CC(C2=CCN(c3ccccc3)C2=O)c2ccc(Cl)cc2N1.[Na+]` (racemic), the Activity entry in series [1] was “Non-Toxic”.

For the molecule `O=C([O-])C1CC(C2=CCN(c3cccnc3)C2=O)c2ccc(Cl)cc2N1.[Na+]` (racemic), the Activity entry in series [1] is listed as “Non-Toxic”.

With `CS(=O)(=O)Nc1ccc(N2CC=C(C3CC(C(=O)[O-])Nc4cc(Cl)ccc43)C2=O)cc1.[Na+]` (racemic), the Activity result in series [1] is “Non-Toxic”.

In the case of `CC(=O)Nc1ccc(N2CC=C(C3CC(C(=O)O)Nc4cc(Cl)ccc43)C2=O)cc1` (racemic), in series [1], the Activity result is “Non-Toxic”.

Take `CC(=O)Nc1ccc(N2CC/C(=C3\CC(C(=O)O)Nc4cc(Cl)ccc43)C2=O)cc1` (racemic): the Activity entry in series [1] is reported as “Non-Toxic”.

On to `O=C([O-])C1CC(C2=CCN(c3ccccc3)C2=O)c2c(Cl)cc(Cl)cc2N1.[Na+]` (racemic), for which the Activity entry in series [1] was “Non-Toxic”.

Regarding `O=C([O-])C1CC(C2=CCN(c3ccccc3)C2=O)c2ccc(Cl)cc2N1.[Na+]` (single isomer, unassigned), the ED50 with Mus musculus was 0.3 mg/kg.

With `O=C([O-])C1CC(C2=CCN(c3ccccc3)C2=O)c2ccc(Cl)cc2N1.[Na+]` (single isomer, unassigned; (-)), in the series on Mus musculus, the 50% effective dose (ED50) is 0.03 mg/kg.

As to `O=C([O-])C1C/C(=C2\CCN(c3ccccc3)C2=O)c2ccc(Cl)cc2N1.[Na+]` (single isomer, unassigned; (-)), the ED50 in the series with Mus musculus (Mus musculus, po, read-out: ED50) was determined as 0.14 mg/kg. Also, the Activity result in series [1] was “Non-Toxic”.
